Results published in the supplement of paper PMC11061612.

Assays:
COLO-679 (Melanoma) = assay: Bliss excess, mean over the matrix (fraction); higher = more synergy
Method in brief: (§1)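 Bliss excess equals the observed combination effect minus the expected value EA + EB − EA·EB, where EA and EB are the effects of each agent alone. Combination Emax is the second-highest inhibition within the matrix. Inhibition was scaled from CellTiter-Glo 2.0 luminescence, with 0 set by vehicle wells and 1 by blank wells, after 72 hours of two-drug dosing of cells plated in 1536-well plates.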

[1] = tested on: DU-145 (Prostate Carcinoma); assay: as above
Method in brief: as §1

[2] = tested on: KGN (Other Solid Carcinomas); assay: as above
Method in brief: as §1

[3] = tested on: MV-4-11 (Acute Myeloid Leukemia); assay: as above
Method in brief: as §1

[4] = tested on: SNU-387 (Hepatocellular Carcinoma); assay: as above
Method in brief: as §1

[5] = tested on: Ca-Ski (Cervical Carcinoma); assay: combination Emax (second highest fraction inhibited in the dose matrix, 72 h); higher = more inhibition; extreme values may be limits of the assay
Method in brief: as §1

[6] = tested on: EFO-21 (Ovarian Carcinoma); assay: as above
Method in brief: as §1

[7] = tested on: KGN (Other Solid Carcinomas); assay: as above
Method in brief: as §1

[8] = tested on: KMRC-1 (Kidney Carcinoma); assay: as above
Method in brief: as §1

[9] = tested on: ME-180 (Cervical Carcinoma); assay: as above
Method in brief: as §1

[10] = tested on: ML-2 (Acute Myeloid Leukemia); assay: as above
Method in brief: as §1

[11] = tested on: MOLT-4 (T-Lymphoblastic Leukemia); assay: as above
Method in brief: as §1

[12] = tested on: MV-4-11 (Acute Myeloid Leukemia); assay: as above
Method in brief: as §1

[13] = tested on: Mo-T (Other Blood Carcinomas); assay: as above
Method in brief: as §1

[14] = tested on: NCI-H1355 (Lung Adenocarcinoma); assay: as above
Method in brief: as §1

[15] = tested on: NCI-H1993 (Lung Adenocarcinoma); assay: as above
Method in brief: as §1

[16] = tested on: NCI-H522 (Lung Adenocarcinoma); assay: as above
Method in brief: as §1

[17] = tested on: OE33 (Esophageal Adenocarcinoma); assay: as above
Method in brief: as §1

[18] = tested on: SKN (Other Solid Carcinomas); assay: as above
Method in brief: as §1

[19] = tested on: SNU-387 (Hepatocellular Carcinoma); assay: as above
Method in brief: as §1

| Compound | Bliss excess (COLO-679 (Melanoma)) | Bliss excess [1] | Bliss excess [2] | Bliss excess [3] | Bliss excess [4] | combination Emax [5] | combination Emax [6] | combination Emax [7] | combination Emax [8] | combination Emax [9] | combination Emax [10] | combination Emax [11] | combination Emax [12] | combination Emax [13] | combination Emax [14] | combination Emax [15] | combination Emax [16] | combination Emax [17] | combination Emax [18] | combination Emax [19] |
| --- | --- | --- | --- | --- | --- | --- | --- | --- | --- | --- | --- | --- | --- | --- | --- | --- | --- | --- | --- | --- |
| Cc1cc2ncnn2cc1Nc1ncc2c(n1)n(C1CCOCC1)c(=O)n2C [AZD7648] + CN(C)CCCOc1ccc(-c2ccc3ncc4c(c3c2)n(C2CCOCC2)c(=O)n4C)cn1 [AZD0156] (first compound max 10 µM, 7x7, partner max 1 µM) | -0.0259 | -0.0142 | -0.0424 | 0.0291 | -0.0188 | 0.296 | 0.332 | 0.661 | 0.24 | 0.326 | 0.374 | 0.246 | 0.484 | 0.3 | 0.482 | 0.517 | 0.164 | 0.256 | 0.264 | 0.275 |
| Cc1cc2ncnn2cc1Nc1ncc2c(n1)n(C1CCOCC1)c(=O)n2C [AZD7648] + COc1cc([C@@H]2c3cc4c(cc3[C@@H](O[C@@H]3O[C@@H]5CO[C@@H](C)O[C@H]5[C@H](O)[C@H]3O)[C@H]3COC(=O)[C@H]23)OCO4)cc(OC)c1O [Etoposide] (first compound max 10 µM, 7x7, partner max 10 µM) | -0.0745 | 0.0001 | 0.114 | 0.115 | -0.0126 | 0.884 | 0.438 | 0.863 | 0.478 | 0.941 | 0.955 | 1 | 1 | 0.909 | 0.535 | 0.79 | 0.339 | 0.504 | 0.784 | 0.22 |
| Cc1cc2ncnn2cc1Nc1ncc2c(n1)n(C1CCOCC1)c(=O)n2C [AZD7648] + C[C@@H]1COCCN1C2=NC(=NC(=C2)C3(CC3)[S@](=N)(=O)C)C4=C5C=CNC5=NC=C4 [AZD6738] (first compound max 10 µM, 7x7, partner max 10 µM) | -0.0486 | -0.0068 | 0.0439 | -0.0469 | -0.0236 | 0.581 | 0.488 | 0.873 | 0.518 | 0.442 | 0.968 | 1 | 0.983 | 0.569 | 0.661 | 0.665 | 0.193 | 0.784 | 0.47 | 0.388 |
| Cc1cc2ncnn2cc1Nc1ncc2c(n1)n(C1CCOCC1)c(=O)n2C [AZD7648] + O=C(c1cc(Cc2n[nH]c(=O)c3ccccc23)ccc1F)N1CCN(C(=O)C2CC2)CC1 [Olaparib] (first compound max 10 µM, 7x7, partner max 10 µM) | -0.039 | -0.026 | -0.0384 | -0.0389 | -0.0303 | 0.142 | 0.264 | 0.601 | 0.184 | 0.154 | 0.419 | 0.233 | 0.446 | 0.382 | 0.297 | 0.331 | 0.17 | 0.218 | 0.131 | 0.259 |
| Cc1nc(Nc2ncc(C(=O)Nc3c(C)cccc3Cl)s2)cc(N2CCN(CCO)CC2)n1 [Dasatinib] + CC(=O)Nc1cccc(-n2c(=O)n(C3CC3)c(=O)c3c(Nc4ccc(I)cc4F)n(C)c(=O)c(C)c32)c1 [Trametinib] (first compound max 2 µM, 7x7, partner max 1 µM) | -0.137 | -0.0081 | -0.0643 | -0.128 | 0.0213 | 0.774 | 0.479 | 0.8 | 0.739 | 0.476 | 0.799 | 0.424 | 0.791 | 0.137 | 0.482 | 0.69 | 0.251 | 0.641 | 0.683 | 0.511 |
| COc1cc2ncnc(Nc3ccc(F)c(Cl)c3)c2cc1OCCCN1CCOCC1 [Gefitinib] + CC(C)n1c(=O)n(C)c2cnc3cc(F)c(-c4ccc(OCCCN5CCCCC5)nc4)cc3c21 [AZD1390] (first compound max 10 µM, 7x7, partner max 0.3 µM) | -0.0901 | -0.06 | -0.0632 | -0.0534 | -0.0714 | 0.292 | 0.198 | 0.368 | 0.0966 | 0.42 | 0.168 | 0.373 | 0.754 | 0.178 | 0.133 | 0.349 | 0.196 | 0.413 | 0.199 | 0.169 |
